From ChEMBL document CHEMBL1155033, “Catalytic analysis of the validamycin glycosyltransferase (ValG) and enzymatic production of 4''-epi-validamycin A” (J Nat Prod, 2008)
Activity calls are given as the source filed them. No cut-off for these calls is given here.

Test system: Rhizoctonia solani
Test: Growth inhibition of Rhizoctonia solani assessed as inhibition of fungal mycelia expansion at 1 mg after 2 days by agar plug assay
Format: functional, organism-based

OCC1=C[C@@H](N[C@H]2C[C@H](CO)[C@@H](O[C@H]3O[C@@H](CO)[C@H](O)[C@@H](O)[C@@H]3O)[C@H](O)[C@H]2O)[C@H](O)[C@@H](O)[C@@H]1O
Activity: Active
